# Data published in patent US8129163B2, “Gene suitable for alcohol dehydrogenase, vector and transformant” (Kaneka Corporation, priority 2006, dated 2012).
# Legend:
# RMA = format: biochemical, Candida maltosa IFO 1977 strain
# [1] = system: enzyme derived from Candida parapsilosis IFO 1396 strain; conditions: cited from earlier work
smiles,measurement,setting,value
O=C(O)CN(CCN(CC(=O)O)CC(=O)O)CC(=O)O [Ethylenediaminetetraacetic acid],Relative activity (%) of RMA after treatment with inhibitor,RMA,12.9%
same,inhibition of RMA (in words),RMA,inhibited
same,inhibition of enzyme activity (in words),[1],not inhibited
